Data on nine compounds can be found in patent US12325696B2, “Indazole derivative, preparation method therefor, and pharmaceutical application thereof” (JIANGSU HENGRUI MEDICINE CO., LTD., priority 2019, dated 2025).

Common to all, as to format: cell-based
For one assay, the system named is MCF7 D538G. As to the kind of experiment: Inhibition of proliferation of MCF7 cell expressing ERα D538G mutant. The note with it: Homo sapiens, 144 hours; for Emax: read-out: Maximum inhibition. From the text:
(§1) The mutants ERα Y537S and ERα D538G of human estrogen receptor α (ERαs) protein were obtained by site-directed mutagenesis using the cDNA of wild-type ESR1 gene (Accession No. NM000125) as a template according to double-primer PCR. The primer sequences used for mutagenesis are as follows (the nucleotides underlined are the sites of mutagenesis):
(§2) The cDNA of mutant ESR1 was cloned into the target lentiviral vector pCDH-CMV-MCS-EF1-Puro (SBI, CD510B-1). The lentiviral plasmid with the mutant ESR1 gene sequence and the lentiviral packaging plasmids pVSV-G and pCMV-dR8.91 (SBI, LV500A-1) were transfected into HEK-293T cells (ATCC, CRL-3216) by Lipofectamine 3000 Transfection Reagent (ThermoFisher Scientific, Cat #L3000075). 48 hours after the transfection, the supernatant of the virus-containing DMEM high-glycemic medium (GE Healthcare, SH30243.01) containing 10% FBS was filtered, and ultracentrifuged to obtain the virus pellet. The virus pellet was resuspended in an appropriate amount of MEM medium (GE Healthcare, SH30024.01) containing 10% FBS, non-essential amino acids (SIGMA, M7145-100ML) and sodium pyruvate (SIGMA, S8636-100ML), and the resulting suspension was added to MCF7 cells (ATCC, HTB-22). Polybrene (SIGMA, H9268-5G) at a final concentration of 8 µg/ml was added, and the cells were incubated overnight. Two days after the transfection, […] puromycin (invitrogen, A11138-03) was added to the cell culture medium for resistance screening. After about two weeks, the MCF7 cell line capable of stably expressing ERαY537S and ERα D538G mutants was obtained.
(§3) MCF7 cells expressing ERα mutant were cultured in MEM (GE Healthcare, SH30024.01) complete medium containing 10% fetal bovine serum. On the first day of the experiment, the cells were seeded in a 96-well plate with the complete medium at a density of 3,000 cells/well (100 μl of cell suspension per well), and the plate was incubated in a cell incubator at 37° C. and 5% CO2 overnight. On the second day, the medium in each well was replaced with 135 μl of MEM incomplete medium containing 2% fetal bovine serum. 15 μl of test compound solution of different concentrations formulated with the incomplete medium was added to each well, wherein the final concentrations of the compound were nine concentration points obtained by a 4-fold gradient dilution starting from 100 nM. A blank control containing 0.500 DMSO was set. The plate was incubated in a cell incubator at 37° C. and 500 CO2 for 144 hours. On the eighth day, the 96-well plate was taken out, and 150 of CellTiter-Glo® Luminescent Cell Viability Assay (Promega, G7573) was added to each well. The plate was left to stand at room temperature for 10 minutes, and the luminescence signal values were measured using a multi-label microplate reader (PerkinElmer, VICTOR 3). The IC50 values of the inhibitory activity of the compounds were calculated based on the concentrations and luminescence signal values of the compounds using Graphpad Prism software.

Assay [1] has as its system estrogen receptor reporter gene. Put plainly: Inhibition of estrogen receptor reporter gene activity (ERE-luc luciferase) in MCF7/ERE-luc cells. The note with it: Homo sapiens, 0.1 nM β-estradiol, 20 hours, read-out: IC50 of inhibitory activity on the activity of the estrogen receptor reporter gene. The procedure: MCF7 cells MCF7/ERE-luc (ATCC, HTB-22) expressing the luciferase reporter gene ERE-luc (synthesized by GENEWIZ, Inc.) controlled by the estrogen receptor response element were cultured in MEM (GE Healthcare, SH30024.01) medium containing 10% fetal bovine serum and 500 µg/ml G418. On the first day of the experiment, MCF7/ERE-luc cells were seeded in a 96-well plate with incomplete MEM medium containing 10% fetal bovine serum treated with activated charcoal (BioSun, BS-0004-500) at a density of 30,000 cells/well (100 μl of cell suspension per well), and the plate was incubated in a cell incubator at 37° C. and 5% CO2 overnight. On the second day, 10 μl of β-estradiol (SIGMA, E2758-250MG) solution formulated with the above incomplete medium or test compound solution of different concentrations formulated with the above incomplete medium was added to each well, wherein the final concentration of β-estradiol was 0.1 nM, and the final concentrations of the compound were nine concentration points obtained by a 10-fold gradient dilution starting from 10 μM, a blank control containing 0.5% DMSO was set, and the plate was incubated in a cell incubator at 37° C. and 5% CO2 for 20 hours. On the third day, the 96-well plate was taken out, and 100 μl of ONE-Glo™ Luciferase Assay system (Promega, E6110) was added to each well to determine the activity of luciferase. The plate was left to stand at room temperature for 3 minutes until the cells were fully lysed, and the luminescence signal values were measured using a multi-label microplate reader (PerkinElmer, VICTOR 3). The IC50 values of the inhibitory activity of the compounds were calculated using Graphpad Prism software based on the concentrations and luminescence signal values of the compounds.
The inhibitory effect of the compounds of the present disclosure on the activity of the estrogen receptor reporter gene was determined by the above test. A graph of the chemiluminescence signal values versus the logarithmic concentrations of the compound was made using Graghpad Prism.

Another assay concerns MCF7 ERαY537S. Put plainly: Inhibition of proliferation of MCF7 cell expressing ERα Y537S mutant. Particulars: Homo sapiens, 144 hours; for Emax: read-out: Maximum inhibition.
Text: as §1, §2, §3

The next assay relates to MCF7 cell. As to the kind of experiment: Inhibition of proliferation of MCF7 cell (CellTiter-Glo, 144 hours). Particulars: Homo sapiens; for IC50: MCF7, CellTiter-Glo, read-out: IC50 of the inhibitory effect on the proliferation of MCF7 cell; for Emax: MCF7 cell proliferation, read-out: Maximum inhibition. As to the method:
as §3, with “cells (ATCC, HTB-22)” for “cells expressing ERα mutant”, “experiment, MCF7” for “experiment, the”, “containing 0.5%” for “containing 0.500”, “and 5%” for “and 500”, “150 μl” for “150”
A graph of the chemiluminescence signal values versus the logarithmic concentrations of the compound was made using Graghpad Prism to obtain the IC50 values of the compound.

On to `O=C(/C=C/CNC1(COc2ccc(/C(=C(/CC(F)(F)F)c3ccccc3)c3ccc4[nH]nc(F)c4c3)cn2)CC1)N1CCCCC1` [Example 3, (E)-1-(Piperidin-1-yl)-4-((1-(((5-((Z)-4,4,4-trifluoro-1-(3-fluoro-1H-indazol-5-yl)-2-phenylbut-1-en-1-yl)pyridin-2-yl)oxy)methyl)cyclopropyl)amino)but-2-en-1-one], for which the IC50 with MCF7 D538G was 9 nM; in assay [1], 4 nM; in the assay on MCF7 ERαY537S, 9 nM; in the assay on MCF7 cell it was 2 nM. Further, the Emax in the assay with MCF7 D538G came out at 96%; in the assay with MCF7 ERαY537S it was 93%; in the assay with MCF7 cell, 101%.
Take `O=C(/C=C/CNC1(COc2ccc(/C(=C(/CC(F)(F)F)c3ccccc3)c3ccc4[nH]nc(F)c4c3)cn2)CC1)N1CCNCC1` [Example 4, (E)-1-(Piperazin-1-yl)-4-((1-(((5-((Z)-4,4,4-trifluoro-1-(3-fluoro-1H-indazol-5-yl)-2-phenylbut-1-en-1-yl)pyridin-2-yl)oxy)methyl)cyclopropyl)amino)but-2-en-1-one]: the IC50 with MCF7 D538G is 10 nM; in assay [1], 4 nM; with MCF7 ERαY537S, 11 nM; with MCF7 cell, 1.5 nM. The values for the Emax in the assay with MCF7 D538G, in the assay with MCF7 ERαY537S and with MCF7 cell were 105%, 101% and 113%, respectively.
As for `CN(C)C(=O)/C=C/CN(C)C1(COc2ccc(/C(=C(/CC(F)(F)F)c3ccccc3)c3ccc4[nH]nc(F)c4c3)cn2)CC1` [Example 5, (E)-N,N-Dimethyl-4-(methyl(1-(((5-((Z)-4,4,4-trifluoro-1-(3-fluoro-1H-indazol-5-yl)-2-phenylbut-1-en-1-yl)pyridin-2-yl)oxy)methyl)cyclopropyl)amino)but-2-enamide], the IC50 in the assay on MCF7 D538G was 0.2 nM; in assay [1], 3 nM; with MCF7 ERαY537S, 0.3 nM; with MCF7 cell it was 0.1 nM. Moreover, the results for the Emax in the assay with MCF7 D538G, with MCF7 ERαY537S and in the assay on MCF7 cell were 98%, 107% and 96%, respectively.
On to `CCN(C/C=C/C(=O)N(C)C)C1(COc2ccc(/C(=C(/CC(F)(F)F)c3ccccc3)c3ccc4[nH]nc(F)c4c3)cn2)CC1` [Example 6, (E)-4-(Ethyl(1-(((5-((Z)-4,4,4-trifluoro-1-(3-fluoro-1H-indazol-5-yl)-2-phenylbut-1-en-1-yl)pyridin-2-yl)oxy)methyl)cyclopropyl)amino)-N,N-dimethylbut-2-enamide], for which the IC50 in the assay on MCF7 D538G was 0.5 nM; in assay [1] it was 0.5 nM; with MCF7 ERαY537S, 1 nM; in the assay on MCF7 cell, 0.15 nM. Also, the Emax in the assay on MCF7 D538G is 98%; in the assay with MCF7 ERαY537S it was 102%; in the assay on MCF7 cell, 94%.
Take `CN(C)C(=O)/C=C/CNC1(COc2ccc(/C(=C(/CC(F)(F)F)c3ccccc3)c3ccc4[nH]nc(F)c4c3)cn2)CCCC1` [Example 7, (E)-N,N-Dimethyl-4-((1-(((5-((Z)-4,4,4-trifluoro-1-(3-fluoro-1H-indazol-5-yl)-2-phenylbut-1-en-1-yl)pyridin-2-yl)oxy)methyl)cyclopentyl)amino)but-2-enamide]: the IC50 in the assay on MCF7 D538G came out at 12 nM; in assay [1], 38 nM; in the assay on MCF7 ERαY537S it was 12 nM; in the assay on MCF7 cell, 2 nM. Besides, the Emax stood at 84% in the assay with MCF7 D538G, 88% with MCF7 ERαY537S and 102% in the assay on MCF7 cell.
`CNC(=O)c1ccc(/C(CC(F)(F)F)=C(\c2ccc(O[C@@H]3CCCN(C/C=C/C(=O)N(C)C)C3)nc2)c2ccc3[nH]nc(F)c3c2)cc1` [Example 21, 4-((Z)-1-(6-(((R)-1-((E)-4-(Dimethylamino)-4-oxobut-2-en-1-yl)piperidin-3-yl)oxy)pyridin-3-yl)-4,4,4-trifluoro-1-(3-fluoro-1H-indazol-5-yl)but-1-en-2-yl)-N-methylbenzamide]: in the assay on MCF7 cell, the IC50 came to 45 nM and the Emax was found to be 90%.
As for `CN(C)C(=O)/C=C/CN1CCC[C@H](Oc2ccc(/C(=C(/CC(F)(F)F)c3ccccc3)c3ccc4[nH]nc(F)c4c3)cn2)C1` [Example 27, (E)-N,N-Dimethyl-4-((S)-3-((5-((Z)-4,4,4-trifluoro-1-(3-fluoro-1H-indazol-5-yl)-2-phenylbut-1-en-1-yl)pyridin-2-yl)oxy)piperidin-1-yl)but-2-enamide], the IC50 in assay [1] is 7 nM. Moreover, in the assay on MCF7 cell, the IC50 was determined as 0.3 nM and the Emax was found to be 86%.
As for `C=CC(=O)N1CCC(Oc2ccc(/C(=C(/CC(F)(F)F)c3ccccc3)c3ccc4[nH]nc(F)c4c3)cn2)CC1` [Example 28, (Z)-1-(4-((5-(4,4,4-Trifluoro-1-(3-fluoro-1H-indazol-5-yl)-2-phenylbut-1-en-1-yl)pyridin-2-yl)oxy)piperidin-1-yl)prop-2-en-1-one], the IC50 in assay [1] was 4 nM. Also, in the assay on MCF7 cell, the IC50 was found to be 0.1 nM and the Emax was determined as 90%.
The like results for `CN(C)C(=O)/C=C/CN1CC[C@H](Oc2ccc(/C(=C(/CC(F)(F)F)c3ccccc3)c3ccc4[nH]nc(F)c4c3)cn2)C1` [Example 30, (E)-N,N-Dimethyl-4-((S)-3-((5-((Z)-4,4,4-trifluoro-1-(3-fluoro-1H-indazol-5-yl)-2-phenylbut-1-en-1-yl)pyridin-2-yl)oxy)pyrrolidin-1-yl)but-2-enamide] were, in that order, 3 nM, 0.2 nM and 93%.
